# Reference: US8968780B2, “Stabilized pharmaceutical composition” (Egis Gyogyszergyar Nyilvanosan Muekoedoe Reszvenytarsasag, priority 2010, dated 2015)
# Read-outs that look alike come from different tables or passages of the source.
# Key:
# [1] = Preformulation stability of pregabalin with physically admixed non-reducing saccharides (appearance, scent); format: physicochemical
smiles,measurement,setting,value
"CC(C)CC(CN)CC(=O)O (stereo not drawn) [Pregabalin, 5-methyl-3-aminomethyl-hexanoic acid]",% Known Impurities Lactum RRT = 3.91,40° C./75% RH/4 Weeks/open,0.004%
same,% Known Impurities Lactum RRT = 3.91,60° C./2 Weeks/closed,0.006%
same,% Known Impurities Lactum RRT = 3.91,Initial,<0.0003%
same,Scent,[1]; 40° C./75% RH/4 Weeks/open,Odourless
same,Scent,[1]; 50° C./4 Weeks/closed,Odourless
same,Scent,[1]; Initial,Odourless
